Measured values from patent US20100144743A1, “COMPOSITIONS AND METHODS FOR INHIBITION OF TYROSINE KINASES” (BOARD OF REGENTS, THE UNIVERSITY OF TEXAS SYSTEM, priority 2006, published 2010).
Values joined by “and” are separate entries in the source; they are usually repeats but may differ in a detail not shown here. Equal entries are not always repeated. Where two headings read alike, the source gives them in different places.

What was measured:
HIF-1 = HIF-1 GFP/DsRFP expression (G/R) in C6#4 cells stimulated by CoCl2; format: cell-based

Q: Which results are given for `c1ccc(Oc2ccc(Nc3nccn4c(-c5ccc6[nH]ccc6c5)cnc34)cc2)cc1` [LG2-7]?
A: G/R:WST-1 Ratio Mean (HIF-1): 5.6 and 5.633; EC50 (HIF-1; read-out: G/R (EC-50)): 9.1 µM; EC50 (HIF-1; read-out: G/R (EC-50) 1 ex): 14.2 µM; EC50 (HIF-1; read-out: G/R (EC-50) 2 ex): 9.34 µM; EC50 (HIF-1; read-out: G/R (EC-50) 3 ex): 3.89 µM; EC50 (HIF-1; read-out: G/R (REC-50) Mean): 9.15 µM; EC50 (C6#4 cells; read-out: WST-1 (EC-50)): 35.2 µM; EC50 (C6#4 cells; read-out: WST-1 (EC-50) 1 ex): 23 µM; EC50 (C6#4 cells; read-out: WST-1 (EC-50) 2 ex): 39.9 µM; EC50 (C6#4 cells; read-out: WST-1 (EC-50) 3 ex): 42.7 µM; EC50 (C6#4 cells; read-out: WST-1 (EC-50) Mean): 35.2 µM

Q: Which “G/R:WST-1 Ratio Mean” value (HIF-1) does the source give for `CN(C)CCNC(=O)c1ccc(-c2cnc3c(Nc4ccc(Oc5ccccc5)cc4)nccn23)cc1` [LG2-11] here?
A: The value was 2.2 and 2.237.

Q: And the EC50 (HIF-1; read-out: G/R (EC-50) 1 ex)?
A: Its EC50 is 10.9 µM.

Q: And the EC50 (HIF-1; read-out: G/R (EC-50) 2 ex)?
A: Its EC50 is 15.7 µM.

Q: And the EC50 (HIF-1; read-out: G/R (EC-50) 3 ex)?
A: Its EC50 is 6.07 µM.

Q: What about the EC50 (C6#4 cells; read-out: WST-1 (EC-50)) of the same molecule?
A: Its EC50 is 19.6 µM.

Q: And the EC50 (C6#4 cells; read-out: WST-1 (EC-50) 1 ex)?
A: The EC50 was 18.1 µM.

Q: And the EC50 (C6#4 cells; read-out: WST-1 (EC-50) 2 ex)?
A: Its EC50 is 16.6 µM.

Q: What about the EC50 (C6#4 cells; read-out: WST-1 (EC-50) 3 ex) of the same molecule?
A: The EC50 was 24.2 µM.

Q: And the EC50 (C6#4 cells; read-out: WST-1 (EC-50) Mean)?
A: The EC50 was 19.6 µM.

Q: For `COc1ccc(Nc2nccn3c(-c4cccc(C(N)=O)c4)cnc23)cc1` [LG2-13], which EC50 (HIF-1; read-out: EC 50 G/R) is on record?
A: Its EC50 is 7.95 µM.

Q: And the EC50 (HIF-1; read-out: G/R (EC-50) 2 ex)?
A: Its EC50 is 6.9 µM.

Q: And the EC50 (HIF-1; read-out: G/R (EC-50) 3 ex)?
A: The EC50 was 8.97 µM.

Q: And the cytotoxicity (C6#4 cells)?
A: The cytotoxicity was “doesn't have cytotoxicity”.

Q: And the EC50 (C6#4 cells; read-out: WST-1 (EC-50) 1 ex)?
A: The EC50 was 7.08 µM.

Q: And the EC50 (C6#4 cells; read-out: WST-1 (EC-50) 2 ex)?
A: The EC50 was 101 µM.

Q: What about the EC50 (C6#4 cells; read-out: WST-1 (EC-50) 3 ex) of the same molecule?
A: The EC50 was 99.7 µM.

Q: `COc1cc(-c2cnc3c(Nc4ccccc4)nccn23)ccc1O` [LG2-62] was tested. Which “G/R:WST-1 Ratio Mean” value (HIF-1) did it give?
A: Its value is 1.5 and 1.533.

Q: And the EC50 (HIF-1; read-out: G/R (EC-50))?
A: Its EC50 is 18.9 µM.

Q: And the EC50 (HIF-1; read-out: G/R (EC-50) 1 ex)?
A: Its EC50 is 13.5 µM.

Q: What about the EC50 (HIF-1; read-out: G/R (EC-50) 2 ex) of the same molecule?
A: Its EC50 is 24.4 µM.

Q: And the EC50 (HIF-1; read-out: G/R (EC-50) 3 ex)?
A: The EC50 was 18.9 µM.

Q: What about the EC50 (HIF-1; read-out: G/R (REC-50) Mean) of the same molecule?
A: Its EC50 is 18.9 µM.

Q: What about the EC50 (C6#4 cells; read-out: WST-1 (EC-50)) of the same molecule?
A: Its EC50 is 30.1 µM.

Q: And the EC50 (C6#4 cells; read-out: WST-1 (EC-50) 1 ex)?
A: The EC50 was 19.5 µM.

Q: What about the EC50 (C6#4 cells; read-out: WST-1 (EC-50) 2 ex) of the same molecule?
A: Its EC50 is 43.9 µM.

Q: And the EC50 (C6#4 cells; read-out: WST-1 (EC-50) 3 ex)?
A: Its EC50 is 27.1 µM.

Q: What about the EC50 (C6#4 cells; read-out: WST-1 (EC-50) Mean) of the same molecule?
A: The EC50 was 30.1 µM.

Q: With `CC(C)c1ccc(Nc2nccn3c(-c4cccc(O)c4)cnc23)cc1` [LG2-65] as the molecule, how does the EC50 (HIF-1; C6#4 cells, experiment 1, read-out: G/R (EC-50) 1 ex) read?
A: Its EC50 is 9070 µM.

Q: What about the EC50 (HIF-1; C6#4 cells, experiment 2, read-out: G/R (EC-50) 2 ex) of the same molecule?
A: The EC50 was 3860 µM.

Q: And the EC50 (HIF-1; C6#4 cells, experiment 3, read-out: G/R (EC-50) 3 ex)?
A: Its EC50 is 5670 µM.

Q: What about the “influence on C6#4 cells” value (C6#4 cells; concentration 200 μM) of the same molecule?
A: Its value is “doesn't influence”.

Q: What about the EC50 (C6#4 cells; read-out: WST-1 (EC-50) 1 ex, C6#4 cells, experiment 1) of the same molecule?
A: Its EC50 is 56.4 µM.

Q: Which “G/R:WST-1 Ratio Mean” value (HIF-1) does the source give for `COc1cc(Nc2nccn3c(-c4cccc(C(C)=O)c4)cnc23)cc(OC)c1OC` [LG2-75] here?
A: The value was 1.2 and 1.233.

Q: What about the EC50 (HIF-1; read-out: G/R (EC-50)) of the same molecule?
A: Its EC50 is 14.8 µM.

Q: And the EC50 (HIF-1; read-out: G/R (EC-50) 1 ex)?
A: The EC50 was 4.37 µM.

Q: What about the EC50 (HIF-1; read-out: G/R (EC-50) 2 ex) of the same molecule?
A: Its EC50 is 16.3 µM.

Q: What about the EC50 (HIF-1; read-out: G/R (EC-50) 3 ex) of the same molecule?
A: Its EC50 is 23.7 µM.

Q: And the EC50 (HIF-1; read-out: G/R (REC-50) Mean)?
A: The EC50 was 14.8 µM.

Q: What about the EC50 (C6#4 cells; read-out: WST-1 (EC-50)) of the same molecule?
A: The EC50 was 16.8 µM.

Q: And the EC50 (C6#4 cells; read-out: WST-1 (EC-50) 1 ex)?
A: The EC50 was 7.04 µM.

Q: What about the EC50 (C6#4 cells; read-out: WST-1 (EC-50) 2 ex) of the same molecule?
A: Its EC50 is 16.4 µM.

Q: What about the EC50 (C6#4 cells; read-out: WST-1 (EC-50) 3 ex) of the same molecule?
A: The EC50 was 26.8 µM.

Q: What about the EC50 (C6#4 cells; read-out: WST-1 (EC-50) Mean) of the same molecule?
A: Its EC50 is 16.8 µM.

Q: How did the “G/R:WST-1 Ratio Mean” value (HIF-1) turn out when `CC(=O)c1cccc(-c2cnc3c(Nc4ccc(N5CCOCC5)cc4)nccn23)c1` [LG2-81] was run?
A: The value was 3.7.

Q: And the EC50 (HIF-1; read-out: G/R (EC-50))?
A: Its EC50 is 10.5 µM.

Q: And the EC50 (HIF-1; read-out: G/R (EC-50) 1 ex)?
A: Its EC50 is 8.66 µM.

Q: What about the EC50 (HIF-1; read-out: G/R (EC-50) 2 ex) of the same molecule?
A: Its EC50 is 12.2 µM.

Q: What about the EC50 (HIF-1; read-out: G/R (EC-50) 3 ex) of the same molecule?
A: Its EC50 is 10.5 µM.

Q: What about the EC50 (HIF-1; read-out: G/R (REC-50) Mean) of the same molecule?
A: Its EC50 is 10.5 µM.

Q: And the EC50 (C6#4 cells; read-out: WST-1 (EC-50))?
A: Its EC50 is 38.8 µM.

Q: What about the EC50 (C6#4 cells; read-out: WST-1 (EC-50) 1 ex) of the same molecule?
A: The EC50 was 32.2 µM.

Q: And the EC50 (C6#4 cells; read-out: WST-1 (EC-50) 2 ex)?
A: Its EC50 is 40.2 µM.

Q: What about the EC50 (C6#4 cells; read-out: WST-1 (EC-50) 3 ex) of the same molecule?
A: The EC50 was 43.9 µM.

Q: And the EC50 (C6#4 cells; read-out: WST-1 (EC-50) Mean)?
A: The EC50 was 38.8 µM.

Q: For `COc1cccc(-c2cnc3c(Nc4ccccc4)nccn23)c1` [LG2-85], which “G/R:WST-1 Ratio Mean” value (HIF-1) is on record?
A: The value was 2.0 and 2.033.

Q: What about the EC50 (HIF-1; read-out: G/R (EC-50)) of the same molecule?
A: Its EC50 is 23.5 µM.

Q: What about the EC50 (HIF-1; read-out: G/R (EC-50) 1 ex) of the same molecule?
A: The EC50 was 23.9 µM.

Q: And the EC50 (HIF-1; read-out: G/R (EC-50) 2 ex)?
A: Its EC50 is 23.1 µM.

Q: And the EC50 (HIF-1; read-out: G/R (EC-50) 3 ex)?
A: Its EC50 is 23.5 µM.

Q: And the EC50 (HIF-1; read-out: G/R (REC-50) Mean)?
A: The EC50 was 23.5 µM.

Q: And the EC50 (C6#4 cells; read-out: WST-1 (EC-50))?
A: Its EC50 is 48.1 µM.

Q: And the EC50 (C6#4 cells; read-out: WST-1 (EC-50) 1 ex)?
A: The EC50 was 34.8 µM.

Q: What about the EC50 (C6#4 cells; read-out: WST-1 (EC-50) 2 ex) of the same molecule?
A: The EC50 was 41.6 µM.

Q: What about the EC50 (C6#4 cells; read-out: WST-1 (EC-50) 3 ex) of the same molecule?
A: The EC50 was 67.9 µM.

Q: What about the EC50 (C6#4 cells; read-out: WST-1 (EC-50) Mean) of the same molecule?
A: Its EC50 is 48.1 µM.

Q: For `c1ccc2c(-c3cnc4c(Nc5ccc6[nH]ccc6c5)nccn34)cccc2c1` [LG2-89], which “G/R:WST-1 Ratio Mean” value (HIF-1) is on record?
A: Its value is 1.4 and 1.383.

Q: What about the EC50 (HIF-1; read-out: G/R (EC-50)) of the same molecule?
A: The EC50 was 27.9 µM.

Q: What about the EC50 (HIF-1; read-out: G/R (EC-50) 1 ex) of the same molecule?
A: Its EC50 is 13.7 µM.

Q: And the EC50 (HIF-1; read-out: G/R (EC-50) 2 ex)?
A: Its EC50 is 42.7 µM.

Q: What about the EC50 (HIF-1; read-out: G/R (EC-50) 3 ex) of the same molecule?
A: Its EC50 is 27.2 µM.

Q: What about the EC50 (HIF-1; read-out: G/R (REC-50) Mean) of the same molecule?
A: Its EC50 is 27.9 µM.

Q: And the EC50 (C6#4 cells; read-out: WST-1 (EC-50))?
A: Its EC50 is 35.4 µM.

Q: And the EC50 (C6#4 cells; read-out: WST-1 (EC-50) 1 ex)?
A: The EC50 was 21.4 µM.

Q: And the EC50 (C6#4 cells; read-out: WST-1 (EC-50) 2 ex)?
A: Its EC50 is 40.4 µM.

Q: What about the EC50 (C6#4 cells; read-out: WST-1 (EC-50) 3 ex) of the same molecule?
A: The EC50 was 44.4 µM.

Q: And the EC50 (C6#4 cells; read-out: WST-1 (EC-50) Mean)?
A: Its EC50 is 35.4 µM.

Q: For `O=C(NCCO)c1cccc(-c2cnc3c(NCc4cccs4)nccn23)c1` [LG2-98], which EC50 (HIF-1; C6#4 cells, 24 h exposure, GFP normalized to RFP, Table 2, read-out: G/R (EC-50)) is on record?
A: The EC50 was 20.4 µM.

Q: Which results are given for `COc1cc(OC)cc(-c2cnc3c(NCC4CC4)nccn23)c1` [LG2-102]?
A: EC50 (HIF-1; read-out: G/R (EC-50)): 37.4 µM; EC50 (C6#4 cells; read-out: WST-1 (EC-50)): 52.7 µM
